Tests used:
Homo sapiens = organism: Homo sapiens; experiment: Selectivity index, ratio of IC50 for human MAO-B to IC50 for human MAO-A
[1] = target: T1, Amine oxidase [flavin-containing] A (Homo sapiens, UniProt P21397); experiment: Inhibition of human MAO-A at 10^-4 to 10^-3 M using tyramine hydrochloride as substrate after 30 mins by Amplex Red reagent based horseradish peroxidase enzyme-coupled fluorescence assay relative to control; conditions: 0.5 h
T1 sequence (P21397 whole entry): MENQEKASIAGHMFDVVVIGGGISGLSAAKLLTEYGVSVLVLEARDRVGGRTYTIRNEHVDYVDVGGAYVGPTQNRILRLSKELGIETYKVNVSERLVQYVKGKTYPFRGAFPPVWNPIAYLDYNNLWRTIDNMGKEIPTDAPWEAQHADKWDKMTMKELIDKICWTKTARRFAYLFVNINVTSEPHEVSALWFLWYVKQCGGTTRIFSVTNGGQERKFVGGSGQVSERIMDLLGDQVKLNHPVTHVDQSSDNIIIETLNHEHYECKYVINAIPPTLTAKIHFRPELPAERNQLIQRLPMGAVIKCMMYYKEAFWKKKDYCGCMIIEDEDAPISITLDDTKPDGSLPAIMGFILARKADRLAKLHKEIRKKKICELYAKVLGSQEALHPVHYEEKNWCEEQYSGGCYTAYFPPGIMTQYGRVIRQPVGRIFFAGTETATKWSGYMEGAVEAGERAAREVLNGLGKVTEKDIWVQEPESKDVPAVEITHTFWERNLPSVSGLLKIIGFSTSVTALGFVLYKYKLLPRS

[2] = target: T2, Amine oxidase [flavin-containing] B (Homo sapiens, UniProt P27338); experiment: Inhibition of human MAO-B using tyramine hydrochloride as substrate after 30 mins by Amplex Red reagent based horseradish peroxidase enzyme-coupled fluorescence assay
T2 sequence (P27338 whole entry): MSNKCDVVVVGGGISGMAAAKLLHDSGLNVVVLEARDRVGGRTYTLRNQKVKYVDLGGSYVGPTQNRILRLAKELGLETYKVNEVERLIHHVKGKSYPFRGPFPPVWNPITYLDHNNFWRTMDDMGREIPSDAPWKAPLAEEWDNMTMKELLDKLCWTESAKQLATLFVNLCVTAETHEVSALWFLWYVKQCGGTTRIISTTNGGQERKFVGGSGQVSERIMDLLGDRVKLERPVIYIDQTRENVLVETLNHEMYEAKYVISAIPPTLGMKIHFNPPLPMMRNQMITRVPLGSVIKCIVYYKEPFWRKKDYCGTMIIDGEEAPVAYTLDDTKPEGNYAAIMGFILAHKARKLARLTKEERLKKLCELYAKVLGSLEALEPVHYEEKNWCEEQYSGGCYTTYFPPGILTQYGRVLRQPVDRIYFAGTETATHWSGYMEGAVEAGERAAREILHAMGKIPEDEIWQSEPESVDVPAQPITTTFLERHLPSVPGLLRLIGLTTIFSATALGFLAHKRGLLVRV

[3] = target: T1, Amine oxidase [flavin-containing] A; experiment: Inhibition of human MAO-A using tyramine hydrochloride as substrate after 30 mins by Amplex Red reagent based horseradish peroxidase enzyme-coupled fluorescence assay
[4] = target: T2, Amine oxidase [flavin-containing] B; experiment: Inhibition of human MAO-B at 10^-4 to 10^-3 M using tyramine hydrochloride as substrate after 30 mins by Amplex Red reagent based horseradish peroxidase enzyme-coupled fluorescence assay relative to control; conditions: 0.5 h

In the case of N#Cc1ccc(-c2csc(N/N=C/c3ccc(N4CCCC4)cc3)n2)cc1, the Ratio IC50 (Homo sapiens) is reported as 0.8, the “inhibition (INH)” value [1] is reported as over 50% and the IC50 [2] is reported as 53.1 µM. For the same molecule, the IC50 [3] was 66.3 µM and the “inhibition (INH)” value [4] was over 50%.
For Clc1ccc(-c2csc(N/N=C/c3ccc(N4CCCC4)cc3)n2)c(Cl)c1, the Ratio IC50 (Homo sapiens) was 1.26, the “inhibition (INH)” value [1] was over 50% and the IC50 [2] was 131 µM. For the same molecule, the IC50 [3] was 103 µM and the “inhibition (INH)” value [4] was over 50%.
With Clc1ccc(-c2csc(N/N=C/c3ccc(N4CCOCC4)cc3)n2)c(Cl)c1 the Ratio IC50 (Homo sapiens) was 1.56, the “inhibition (INH)” value [1] was over 50% and the IC50 [2] was 133 µM. For the same molecule, the IC50 [3] was 85.4 µM and the “inhibition (INH)” value [4] was over 50%.
With Clc1ccc(-c2csc(N/N=C/c3ccc(N4CCCC4)cc3)n2)cc1 the Ratio IC50 (Homo sapiens) was 16.9, the “inhibition (INH)” value [1] was over 50% and the IC50 [2] was 761 µM. For the same molecule, the IC50 [3] was 45.1 µM and the “inhibition (INH)” value [4] was over 50%.

From ChEMBL document CHEMBL4145445, “Design, synthesis and biological assessment of new thiazolylhydrazine derivatives as selective and reversible hMAO-A inhibitors” (Eur J Med Chem, 2018)
